Assay results taken from patent EP2340832A1, “Morphinan-6-one compounds for the treatment or prevention of neurodegenerative diseases” (Universität Innsbruck, priority 2009, dated 2011).
Where two headings read alike, the source gives them in different places.

Legend:
[1] = target: T1, electric eel AChE (EC 3.1.1.7) (Electrophorus electricus, UniProt O42275); test: Spectrophotometric assay for AChE inhibitory activity (modified Ellman's method); format: biochemical; settings: 96-well microplate, 1% DMSO; read-out: AChE inhibitory activity IC50
T1 construct: purchased Sigma-Aldrich, Germany
T1 sequence (O42275 24-633): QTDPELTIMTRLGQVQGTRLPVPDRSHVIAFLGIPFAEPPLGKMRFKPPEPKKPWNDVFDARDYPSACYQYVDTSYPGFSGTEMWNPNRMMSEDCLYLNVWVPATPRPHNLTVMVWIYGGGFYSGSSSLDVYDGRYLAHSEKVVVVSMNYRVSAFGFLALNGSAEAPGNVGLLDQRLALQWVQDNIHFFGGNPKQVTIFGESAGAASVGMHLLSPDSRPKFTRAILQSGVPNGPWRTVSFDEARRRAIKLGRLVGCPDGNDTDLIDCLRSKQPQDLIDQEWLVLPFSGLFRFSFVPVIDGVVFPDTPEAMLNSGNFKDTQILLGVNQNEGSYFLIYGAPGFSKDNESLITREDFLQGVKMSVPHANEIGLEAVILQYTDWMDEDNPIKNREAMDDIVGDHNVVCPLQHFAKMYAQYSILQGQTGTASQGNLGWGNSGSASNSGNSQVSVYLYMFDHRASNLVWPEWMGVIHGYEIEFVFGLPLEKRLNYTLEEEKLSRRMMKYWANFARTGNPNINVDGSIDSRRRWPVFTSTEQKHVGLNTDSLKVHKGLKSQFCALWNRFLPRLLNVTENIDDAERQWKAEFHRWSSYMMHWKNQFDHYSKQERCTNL

[2] = tested on: frontal cortex synaptosomes; test: ACh release from synaptosomes (15 mM K+-evoked [3H]-ACh release, superfusion); format: cell-based, male Sprague Dawley rats
Procedure: Preparation of synaptosomes: synaptosomes were prepared from brain frontal cortex of male Sprague Dawley rats (4 months old). The frontal cortex was rapidly dissected on ice and homogenized in 40 volumes of 0.32 M sucrose buffered at pH 7.4 with 0.01 M sodium phosphate. The homogenate was centrifuged at 1,000 g for 5 min. The crude synaptosomal pellet was obtained by centrifugation of the supernatant at 15,000 g for 20 min and was resuspended in 5 ml basal medium (125 mM Nacl, 3 mM KCI, 1.2 mM MgS04, 1.2 mM CaCl2, 1.0 mM NaH2PO4, 22 mM NaHCO3 and 10 mM glucose) which had been gassed with 95% O2 - 5% CO2 at 37 °C, pH 7.2 - 7.4.
Superfusion protocol: The synaptosomal suspension was incubated with [^3H]-choline (0.03 µM, 17.5x10^6 Bq/g) for 15 min at 37 °C. Then, the suspension was diluted (1:8) and aliquots were applied on filters in a continuous superfusion system with parallel chambers maintained at 37 °C. The media used for superfusion were basal medium and 15 mM K^+-containing stimulation medium. Both media were supplemented with ACh (1 µM) to facilitate the effectiveness of an allosteric potentiating ligand at the nicotine receptor and with atropine (0.1 µM) to block M2 presynaptic receptors. Synaptosomes were superfused with basal medium for 30 min to reach a constant outflow of [^3H]-ACh. Under these experimental conditions, the radioactivity released consisted largely of newly synthesized [^3H]-ACh. The K^+-stimulated release of [^3H]-ACh was determined in 2 subsequently collected fractions: 6 min basal release (superfusion with basal medium) and 6 min K^+-evoked release (superfusion for 1.5 min with 15 mM K^+-containing medium followed by […] basal medium). The test compounds galantamine, 4 and 2 were present in the superfusion medium concomitantly with 15 mM K^+ (for 1.5 min). Basal release of [^3H]-ACh (continuous superfusion with basal medium) was determined by collection of a 6 min sample followed by four subsequent 2 min samples. Aliquots of samples were mixed with scintillation liquid and the radioactivity quantified with a scintillation counter. The radioactivity bound to the filters was also measured.
Statistical analysis: The amount of [^3H]-ACh released in each sample was calculated as fraction of total synaptosomal tritium at the start of the respective collection period (tritium in the sample / sum of tritium in the respective fractions and in the synaptosomes on the filter). K^+-evoked release was expressed as percentage of basal release rate. Each n=1 represents the mean of an experiment with one synaptosomal preparation in at least 3 superfusion chambers. Statistical significance of group variances was calculated by one way ANOVA followed by Bonferroni's test.

µ opioid receptor = µ opioid receptor (Rattus norvegicus, UniProt P33535); test: Opioid receptor binding assay, [3H]DAMGO, rat brain membranes; parameters: Membrane fractions were prepared from Sprague-Dawley rat or guinea pig brains; from tissue; host or cells: Sprague-Dawley rat brain (without cerebella) membranes; species or system Sprague-Dawley rat
Chain of µ opioid receptor (P33535 whole entry): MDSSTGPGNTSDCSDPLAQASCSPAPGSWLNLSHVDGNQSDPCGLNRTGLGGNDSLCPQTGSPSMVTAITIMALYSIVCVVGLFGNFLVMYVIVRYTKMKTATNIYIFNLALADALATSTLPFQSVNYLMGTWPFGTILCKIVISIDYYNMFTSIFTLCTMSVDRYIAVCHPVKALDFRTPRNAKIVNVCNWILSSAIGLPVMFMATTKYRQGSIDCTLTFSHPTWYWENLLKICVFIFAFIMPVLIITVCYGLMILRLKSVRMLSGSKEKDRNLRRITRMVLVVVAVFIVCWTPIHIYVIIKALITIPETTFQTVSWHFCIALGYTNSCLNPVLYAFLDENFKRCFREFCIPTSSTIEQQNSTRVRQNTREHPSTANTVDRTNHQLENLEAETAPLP
Procedure: Briefly, brains without cerebella were homogenised on ice in 5 volumes of ice-cold 50 mM Tris-HCI buffer (pH 7.4) and diluted in 30 volumes of the same buffer. After centrifugation at 40,000 x g for 20 min at 4°C, the pellets were resuspended in 30 volumes of Tris-HCI buffer and incubated at 37 °C for 30 min (rat brain) or for 10 min (guinea pig brain). The centrifugation step was repeated and the final pellets were resuspended in 5 volumes of 50 mM Tris-HCI buffer (pH 7.4) containing 0.32 M sucrose to give a protein concentration of 4 - 6 mg/ml. Protein concentration was determined by the method of Bradford using bovine serum albumin as standard.
Binding experiments were performed in 50 mM Tris-HCI buffer (pH 7.4) in a final volume of 1 ml containing 0.3 - 0.5 mg protein and different concentrations of the compounds. […] Guinea pig brain membranes were incubated with [^3H]U69,593 (30 min, 30 °C). Non-specific binding was determined in the presence of 10 µM unlabeled naloxone. […] Inhibition constant (Ki) values were calculated from competition binding curves using GraphPad Prism (San Diego, CA, USA) program. The values are expressed as the mean ± S.E.M of 2-4 independent experiments, each performed in duplicate.
The morphinan-6-one compounds of the present invention were evaluated in in vitro receptor binding assays for their interaction abilities with µ, δ and k opioid receptors. […] The affinities of the compounds at k opioid receptors were determined by displacement of [^3H]U69,593 using guinea pig brain membranes.

[3] = tested on: extracellular ACh concentration in the nucleus accumbens; settings: for 0AUC120 min (% increase x min) Mean ± SEM: 0 to 120 min; for Increase in ACh release (Peak increase as % of basal output): nucleus accumbens
C57BL/6N female mice [4] = test: Open field (locomotor activity); format: in vivo; settings: for general locomotion in the open field (move distance, move time): 10 min
Description: Each mouse was used only once. […] . […] Thereafter it was replaced by the obturator.
The open field consisted of a transparent plastic box with white floor (41 x 41 x 41 cm) equipped with an automated activity monitoring system (True Scan, Coulbourn Instruments, Allentown, Pennsylvania, USA). The illumination at floor level was 150 lux. Mice were individually placed into the centre of the open field and their behaviours were tracked with the activity monitoring system. The time of locomotor activity, the overall distance travelled by the mice and the fraction of locomotor activity in the center area (center distance and center time) were monitored for 10 min. The arena was thoroughly cleaned with wet paper towels and dried at the end of each test.
Statistical analysis: All data from behavioural studies are shown as mean ± SEM. Statistical analysis was performed using the analysis of variance (ANOVA), followed by post hoc multiple comparisons Tukey-Kramer test, except comparison of alternation rates with the theoretical value of chance (defined as 50%) which was evaluated by Wilcoxon signed rank test. All statistical analyses were carried out by using the Graphpad Prism Program, version 4.0, Graphpad software, Inc.

C57BL/6N female mice [5] = test: T-maze continuous alternation; settings: for spontaneous alternation rate: normal mice
[6] = scopolamine 0.033 µmol, compound 0.01 and 0.1 µmol i.c.v.

## C=CCN1CC[C@]23CC(=O)CC[C@H]2[C@H]1Cc1cccc(OC)c13 [Compound 4, 4-methoxy-N-allylmorphinan-6-one]
[1]
  IC50: 1 µM
[2]; 0.01 to 10 µM
  effect on K+-evoked ACh release in frontal-cortex synaptosomes: did not influence ACh release
µ opioid receptor
  Ki: 0.0202 µM
  binding to opioid receptor µ (in words): some µ opioid receptor affinity
µ opioid receptor; from binding, Table 3
  selectivity among opioid receptor types: moderate selectivity for the µ type
[3]; 0.25 µmol i.c.v., n=4, not shown
  effect on ACh in the superfusate (in words): ineffective
[3]; 0.5 µmol i.c.v.
  effect on ACh in the superfusate (in words): short, delayed increase
[3]; 1 µmol and above, i.c.v., anaesthetized rats
  toxicity at higher doses: could not be tested because of toxicity
[3]; Dose 0.25 µmol i.c.v.
  0AUC120 min (% increase x min) Mean ± SEM: inactive
  Increase in ACh release (Peak increase as % of basal output): inactive
[3]; Dose 0.5 µmol i.c.v.
  0AUC120 min (% increase x min) Mean ± SEM: 85 ± 26 % increase x min
  Increase in ACh release (Peak increase as % of basal output): 43 ± 19 %
C57BL/6N female mice [4]; 0.1 µmol i.c.v.
  general locomotion in the open field (move distance, move time): did not influence
C57BL/6N female mice [4]; dose not given
  fraction of locomotor activity in the central zone: did not influence
C57BL/6N female mice [5]; 0.05 µmol i.c.v.
  spontaneous alternation rate: decreased spontaneous alternation rate
C57BL/6N female mice [5]; lower (0.001; 0.01 and 0.025 µmol) or higher doses (0.1 µmol) i.c.v.
  spontaneous alternation rate: did not exert a significant effect
C57BL/6N female mice [5]; scopolamine 0.033 µmol, compound 0.01 µmol i.c.v., not shown
  effect on scopolamine-induced reduction in alternation: ineffective
C57BL/6N female mice [5]; scopolamine 0.033 µmol, compound 0.05 µmol i.c.v.
  effect on scopolamine-induced reduction in alternation: ameliorated

## O=CN1CC[C@]23CC(=O)CC[C@H]2[C@H]1Cc1c(O)ccc(O)c13 [Compound 1, 1,4-dihydroxy-N-formylmorphinan-6-one]
[1]
  IC50: 105 µM
[2]; 15 mM K+
  concentration of maximal effect on stimulation-evoked ACh release: 50 µM
[2]; at the maximally effective concentration (1: 50 µM)
  influence of the nAChR antagonist mecamylamine on the compound-induced release: did not influence
[2]; lower (0.1 and 1 µM) and higher concentrations (100 µM)
  effect on stimulation-evoked ACh release: ineffective
µ opioid receptor
  Ki: > 10 µM
  binding to opioid receptor µ (in words): does not bind
µ opioid receptor; read-out: Opioid binding affinities Ki µ receptor, [3H]DAMGO, rat brain membranes
  Ki: > 10 µM
[3]; Dose 0.5 µmol i.c.v.
  0AUC120 min (% increase x min) Mean ± SEM: 210 ± 31 % increase x min
  Increase in ACh release (Peak increase as % of basal output): 65 ± 16 %
[3]; Dose 1 µmol i.c.v.
  0AUC120 min (% increase x min) Mean ± SEM: 1017 ± 214 % increase x min
  Increase in ACh release (Peak increase as % of basal output): 224 ± 39 %
[3]; dose of 1 µmol i.c.v.
  AUC (area under the curve) of ACh (% of the basal value): 1117±214%
  level of ACh, peak value (% of the basal value): 324±39%
[3]; i.c.v., across tested doses
  dose dependence of the increase in extracellular brain ACh: dose-dependent increase
C57BL/6N female mice [4]; 0.01 µmol i.c.v.
  relative center distance and move time: had no effect
C57BL/6N female mice [4]; 0.1 µmol i.c.v.
  relative center distance and move time: increased the relative center distance and move time significantly
C57BL/6N female mice [4]; 0.01 and 0.1 µmol i.c.v.
  general locomotion in the open field (move distance, move time): did not influence
C57BL/6N female mice [5]; 0.01 and 0.1 µmol i.c.v.
  spontaneous alternation rate: did not influence alternation
C57BL/6N female mice [5]; [6]
  effect on scopolamine-increased running time: did not influence
  effect on scopolamine-induced reduction in alternation: abolished the cholinergic impairment of alternation
